Assay results taken from patent US20100292231A1, “Indazole Compounds for Treating Inflammatory Disorders, Demyelinating Disorders and Cancers” (priority 2007, published 2010).
pEC50: −log10 of the molar value. Read-outs that look alike come from different tables or passages of the source.

Legend:
Assay in all cases: SelectScreen kinase specificity survey
Type in all cases: biochemical
MAP2K1 (MEK1) = biological target: T1, MAP2K1 (MEK1) (Homo sapiens, UniProt Q02750); conditions: estimated, abridged dose response curve, read-out: Kinase inhibitory activity EC50
T1 construct: purchased Invitrogen (SelectScreen platform)
Outline: (§1)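 First, uninhibited controls recorded the baseline substrate phosphorylation with 100 micromolar ATP. Next, putative inhibitor was added at 5 graded levels. Finally, the dose-response data were fitted to a four-parameter Hill equation to estimate EC50.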

MUSK = biological target: T2, MUSK (Homo sapiens, UniProt O15146); conditions: estimated, abridged dose response curve, read-out: Kinase inhibitory activity EC50
T2 construct: purchased Invitrogen (SelectScreen platform)
Outline: as §1

EGFR (ErbB1) = biological target: T3, EGFR (ErbB1) (Homo sapiens, UniProt P00533); conditions: estimated, abridged dose response curve, read-out: Kinase inhibitory activity EC50
T3 construct: purchased Invitrogen (SelectScreen service)
Outline: as §1

SGK (SGK1) = biological target: T4, SGK (SGK1) (Homo sapiens, UniProt O00141); conditions: estimated, abridged dose response curve, read-out: Kinase inhibitory activity EC50
T4 construct: purchased Invitrogen, Inc. (SelectScreen platform)
Outline: as §1

GSK3B (GSK3 beta) = biological target: T5, GSK3B (GSK3 beta) (Homo sapiens, UniProt P49841); conditions: estimated, abridged dose response curve, read-out: Kinase inhibitory activity EC50
T5 construct: purchased Invitrogen (SelectScreen platform)
Outline: as §1

PRKG1 (PKG1) = biological target: T6, PRKG1 (PKG1) (Homo sapiens, UniProt Q13976); conditions: estimated, abridged dose response curve, read-out: Kinase inhibitory activity EC50
T6 construct: purchased Invitrogen, Inc. (SelectScreen platform)
Outline: as §1

CAMK4 (CaMKIV) = biological target: T7, CAMK4 (CaMKIV) (Homo sapiens, UniProt Q16566); conditions: estimated, abridged dose response curve, read-out: Kinase inhibitory activity EC50
T7 construct: purchased Invitrogen, Inc. (SelectScreen platform)
Outline: as §1

GRK7 = biological target: T8, GRK7 (Homo sapiens, UniProt Q8WTQ7)
T8 construct: purchased Invitrogen (SelectScreen platform)
Outline: as §1

BTK = biological target: T9, BTK (Homo sapiens, UniProt Q06187); conditions: estimated, abridged dose response curve, read-out: Kinase inhibitory activity EC50
T9 construct: purchased Invitrogen (SelectScreen)
Outline: as §1

PRKCZ (PKC zeta) = biological target: T10, PRKCZ (PKC zeta) (Homo sapiens, UniProt Q05513); conditions: estimated, abridged dose response curve, read-out: Kinase inhibitory activity EC50
T10 construct: purchased Invitrogen, Inc. (SelectScreen platform)
Outline: as §1

SRC = biological target: T11, SRC (Homo sapiens, UniProt P12931); conditions: estimated, abridged dose response curve, read-out: Kinase inhibitory activity EC50
T11 construct: purchased Invitrogen (SelectScreen)
Outline: as §1

NEK2 = biological target: T12, NEK2 (Homo sapiens, UniProt P51955); conditions: estimated, abridged dose response curve, read-out: Kinase inhibitory activity EC50
T12 construct: purchased Invitrogen, Inc. (SelectScreen service)
Outline: as §1

RPS6KA2 (RSK3) = biological target: T13, RPS6KA2 (RSK3) (Homo sapiens, UniProt Q15349); conditions: estimated, abridged dose response curve, read-out: Kinase inhibitory activity EC50
T13 construct: purchased Invitrogen, Inc. (SelectScreen platform)
Outline: as §1

CHEK1 (CHK1) = biological target: T14, CHEK1 (CHK1) (Homo sapiens, UniProt O14757); conditions: estimated, abridged dose response curve, read-out: Kinase inhibitory activity EC50
T14 construct: purchased Invitrogen, Inc. (SelectScreen platform)
Outline: as §1

PAK7 (KIAA1264, PAK5) = biological target: T15, PAK7 (KIAA1264, PAK5) (Homo sapiens, UniProt Q9P286); conditions: estimated, abridged dose response curve, read-out: Kinase inhibitory activity EC50
T15 construct: purchased Invitrogen (SelectScreen platform)
Outline: as §1

PHKG2 = biological target: T16, PHKG2 (Homo sapiens, UniProt P15735); conditions: estimated, abridged dose response curve, read-out: Kinase inhibitory activity EC50
T16 construct: purchased Invitrogen, Inc. (SelectScreen platform)
Outline: as §1

ERBB4 (HER4) = biological target: T17, ERBB4 (HER4) (Homo sapiens, UniProt Q15303); conditions: estimated, abridged dose response curve, read-out: Kinase inhibitory activity EC50
T17 construct: purchased Invitrogen (SelectScreen service)
Outline: as §1

STK24 (MST3) = biological target: T18, STK24 (MST3) (Homo sapiens, UniProt Q9Y6E0); conditions: estimated, abridged dose response curve, read-out: Kinase inhibitory activity EC50
T18 construct: purchased Invitrogen (SelectScreen platform)
Outline: as §1

MAP2K6 (MKK6) = biological target: T19, MAP2K6 (MKK6) (Homo sapiens, UniProt P52564); conditions: estimated, abridged dose response curve, read-out: Kinase inhibitory activity EC50
T19 construct: purchased Invitrogen (SelectScreen platform)
Outline: as §1

IGF1R = biological target: T20, IGF1R (Homo sapiens, UniProt P08069); conditions: estimated, abridged dose response curve, read-out: Kinase inhibitory activity EC50
T20 construct: purchased Invitrogen (SelectScreen platform)
Outline: as §1

MAP4K4 (HGK, ZC1) = biological target: T21, MAP4K4 (HGK, ZC1) (Homo sapiens, UniProt O95819); conditions: estimated, abridged dose response curve, read-out: Kinase inhibitory activity EC50
T21 construct: purchased Invitrogen (SelectScreen platform)
Outline: as §1

JAK2 = biological target: T22, JAK2 (Homo sapiens, UniProt O60674); conditions: estimated, abridged dose response curve, read-out: Kinase inhibitory activity EC50
T22 construct: purchased Invitrogen (SelectScreen platform)
Outline: as §1

PKN1 (PRK1) = biological target: T23, PKN1 (PRK1) (Homo sapiens, UniProt Q16512); conditions: estimated, abridged dose response curve, read-out: Kinase inhibitory activity EC50
T23 construct: purchased Invitrogen, Inc. (SelectScreen platform)
Outline: as §1

PLK2 = biological target: T24, PLK2 (Homo sapiens, UniProt Q9NYY3); conditions: estimated, abridged dose response curve, read-out: Kinase inhibitory activity EC50
T24 construct: purchased Invitrogen, Inc. (SelectScreen service)
Outline: as §1

SRMS (Srm) = biological target: T25, SRMS (Srm) (Homo sapiens, UniProt Q9H3Y6); conditions: estimated, abridged dose response curve, read-out: Kinase inhibitory activity EC50
T25 construct: purchased Invitrogen (SelectScreen)
Outline: as §1

MARK1 (MARK) = biological target: T26, MARK1 (MARK) (Homo sapiens, UniProt Q9P0L2); conditions: estimated, abridged dose response curve, read-out: Kinase inhibitory activity EC50
T26 construct: purchased Invitrogen, Inc. (SelectScreen platform)
Outline: as §1

PRKCB2 (PKC beta II) = biological target: T27, PRKCB2 (PKC beta II) (Homo sapiens, UniProt P05771); conditions: estimated, abridged dose response curve, read-out: Kinase inhibitory activity EC50
T27 construct: purchased Invitrogen (SelectScreen platform)
Outline: as §1

T1 sequence (Q02750 whole entry): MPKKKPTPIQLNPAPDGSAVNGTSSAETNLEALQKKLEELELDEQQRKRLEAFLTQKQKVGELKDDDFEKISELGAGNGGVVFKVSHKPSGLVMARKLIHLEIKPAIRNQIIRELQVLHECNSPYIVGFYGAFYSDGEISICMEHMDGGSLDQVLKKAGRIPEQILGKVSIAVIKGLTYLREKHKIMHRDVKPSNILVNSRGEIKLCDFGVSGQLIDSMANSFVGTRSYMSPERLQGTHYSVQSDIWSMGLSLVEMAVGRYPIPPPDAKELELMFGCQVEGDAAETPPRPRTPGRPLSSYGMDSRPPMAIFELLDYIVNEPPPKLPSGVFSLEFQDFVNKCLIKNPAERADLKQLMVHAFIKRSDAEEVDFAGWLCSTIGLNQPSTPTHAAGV
T13 sequence (Q15349 whole entry): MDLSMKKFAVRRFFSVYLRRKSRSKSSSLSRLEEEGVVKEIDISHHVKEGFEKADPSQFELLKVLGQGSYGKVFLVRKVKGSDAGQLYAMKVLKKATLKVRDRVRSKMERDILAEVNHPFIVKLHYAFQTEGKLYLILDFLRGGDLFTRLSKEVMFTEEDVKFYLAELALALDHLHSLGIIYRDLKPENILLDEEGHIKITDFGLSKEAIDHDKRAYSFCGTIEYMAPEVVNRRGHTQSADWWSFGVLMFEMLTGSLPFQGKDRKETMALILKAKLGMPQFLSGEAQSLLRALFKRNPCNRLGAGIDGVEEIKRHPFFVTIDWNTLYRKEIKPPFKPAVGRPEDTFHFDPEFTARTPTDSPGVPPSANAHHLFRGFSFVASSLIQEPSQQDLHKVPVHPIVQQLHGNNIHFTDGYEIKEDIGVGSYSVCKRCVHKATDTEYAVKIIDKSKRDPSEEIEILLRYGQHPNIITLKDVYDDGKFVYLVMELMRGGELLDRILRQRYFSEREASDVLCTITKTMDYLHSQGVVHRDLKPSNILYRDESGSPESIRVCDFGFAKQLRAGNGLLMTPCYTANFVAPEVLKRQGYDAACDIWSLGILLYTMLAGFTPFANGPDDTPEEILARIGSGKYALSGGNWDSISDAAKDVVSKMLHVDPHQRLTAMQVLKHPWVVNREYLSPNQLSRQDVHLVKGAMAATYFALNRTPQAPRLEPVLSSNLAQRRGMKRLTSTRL
T16 sequence (P15735 whole entry): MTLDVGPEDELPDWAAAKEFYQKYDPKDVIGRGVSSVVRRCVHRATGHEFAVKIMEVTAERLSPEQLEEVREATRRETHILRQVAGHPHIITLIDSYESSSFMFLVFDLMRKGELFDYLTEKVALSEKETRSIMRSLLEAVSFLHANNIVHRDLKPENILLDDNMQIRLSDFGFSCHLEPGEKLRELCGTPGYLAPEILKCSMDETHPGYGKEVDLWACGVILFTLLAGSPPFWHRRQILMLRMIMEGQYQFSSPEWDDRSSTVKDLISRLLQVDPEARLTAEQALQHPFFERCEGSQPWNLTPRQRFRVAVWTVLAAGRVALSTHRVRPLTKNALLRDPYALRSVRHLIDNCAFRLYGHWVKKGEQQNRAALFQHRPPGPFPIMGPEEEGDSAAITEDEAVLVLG
T19 sequence (P52564 whole entry): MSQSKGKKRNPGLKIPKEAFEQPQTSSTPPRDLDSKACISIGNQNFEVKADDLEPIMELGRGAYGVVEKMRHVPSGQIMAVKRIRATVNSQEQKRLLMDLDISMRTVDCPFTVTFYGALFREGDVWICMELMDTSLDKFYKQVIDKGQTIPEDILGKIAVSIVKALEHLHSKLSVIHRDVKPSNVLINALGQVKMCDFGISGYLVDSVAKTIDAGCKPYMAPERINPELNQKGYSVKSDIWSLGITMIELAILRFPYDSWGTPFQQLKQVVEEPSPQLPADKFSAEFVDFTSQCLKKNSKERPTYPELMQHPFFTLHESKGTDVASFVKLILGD
T5 sequence (P49841 whole entry): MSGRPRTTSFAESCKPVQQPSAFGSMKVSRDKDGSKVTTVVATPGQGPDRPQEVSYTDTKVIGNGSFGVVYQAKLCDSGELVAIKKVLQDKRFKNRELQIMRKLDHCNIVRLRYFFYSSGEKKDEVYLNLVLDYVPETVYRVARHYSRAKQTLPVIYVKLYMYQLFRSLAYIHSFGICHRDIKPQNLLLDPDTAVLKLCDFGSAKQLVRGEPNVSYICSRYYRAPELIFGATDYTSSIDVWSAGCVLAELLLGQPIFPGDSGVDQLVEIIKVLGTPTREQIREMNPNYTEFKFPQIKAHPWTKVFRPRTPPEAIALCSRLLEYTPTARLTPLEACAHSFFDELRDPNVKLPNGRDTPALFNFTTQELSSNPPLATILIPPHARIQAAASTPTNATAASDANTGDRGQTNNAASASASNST
T6 sequence (Q13976 whole entry): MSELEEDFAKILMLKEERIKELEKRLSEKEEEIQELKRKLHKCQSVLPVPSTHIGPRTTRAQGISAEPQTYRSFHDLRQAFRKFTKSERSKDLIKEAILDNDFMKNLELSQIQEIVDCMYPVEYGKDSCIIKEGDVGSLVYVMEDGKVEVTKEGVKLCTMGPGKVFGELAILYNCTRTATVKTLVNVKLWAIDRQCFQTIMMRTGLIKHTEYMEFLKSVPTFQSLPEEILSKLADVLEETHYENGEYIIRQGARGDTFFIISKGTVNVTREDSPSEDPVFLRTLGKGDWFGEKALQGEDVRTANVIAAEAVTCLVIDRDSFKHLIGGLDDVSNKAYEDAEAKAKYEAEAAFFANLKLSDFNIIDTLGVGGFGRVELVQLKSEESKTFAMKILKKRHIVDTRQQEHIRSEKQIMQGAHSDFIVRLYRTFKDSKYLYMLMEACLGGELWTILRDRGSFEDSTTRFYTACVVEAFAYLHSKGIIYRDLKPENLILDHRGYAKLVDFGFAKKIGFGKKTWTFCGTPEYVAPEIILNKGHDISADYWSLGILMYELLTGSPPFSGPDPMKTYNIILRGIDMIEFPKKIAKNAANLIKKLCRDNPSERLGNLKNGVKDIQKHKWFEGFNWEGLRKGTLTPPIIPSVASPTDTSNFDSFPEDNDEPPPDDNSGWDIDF
T25 sequence (Q9H3Y6 whole entry): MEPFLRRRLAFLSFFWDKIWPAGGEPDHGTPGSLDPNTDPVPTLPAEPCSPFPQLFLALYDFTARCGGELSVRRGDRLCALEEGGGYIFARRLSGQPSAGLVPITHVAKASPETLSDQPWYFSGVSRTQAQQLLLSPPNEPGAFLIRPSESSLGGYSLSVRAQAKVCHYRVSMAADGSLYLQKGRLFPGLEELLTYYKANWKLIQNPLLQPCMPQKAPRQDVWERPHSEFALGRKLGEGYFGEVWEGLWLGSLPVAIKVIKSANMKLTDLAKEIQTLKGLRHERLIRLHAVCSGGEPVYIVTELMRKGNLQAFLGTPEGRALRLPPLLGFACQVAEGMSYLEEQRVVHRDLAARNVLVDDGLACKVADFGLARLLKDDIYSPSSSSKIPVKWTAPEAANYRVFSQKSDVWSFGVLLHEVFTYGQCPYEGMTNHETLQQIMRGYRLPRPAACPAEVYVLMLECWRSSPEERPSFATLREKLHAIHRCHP
T3 sequence (P00533 25-1210): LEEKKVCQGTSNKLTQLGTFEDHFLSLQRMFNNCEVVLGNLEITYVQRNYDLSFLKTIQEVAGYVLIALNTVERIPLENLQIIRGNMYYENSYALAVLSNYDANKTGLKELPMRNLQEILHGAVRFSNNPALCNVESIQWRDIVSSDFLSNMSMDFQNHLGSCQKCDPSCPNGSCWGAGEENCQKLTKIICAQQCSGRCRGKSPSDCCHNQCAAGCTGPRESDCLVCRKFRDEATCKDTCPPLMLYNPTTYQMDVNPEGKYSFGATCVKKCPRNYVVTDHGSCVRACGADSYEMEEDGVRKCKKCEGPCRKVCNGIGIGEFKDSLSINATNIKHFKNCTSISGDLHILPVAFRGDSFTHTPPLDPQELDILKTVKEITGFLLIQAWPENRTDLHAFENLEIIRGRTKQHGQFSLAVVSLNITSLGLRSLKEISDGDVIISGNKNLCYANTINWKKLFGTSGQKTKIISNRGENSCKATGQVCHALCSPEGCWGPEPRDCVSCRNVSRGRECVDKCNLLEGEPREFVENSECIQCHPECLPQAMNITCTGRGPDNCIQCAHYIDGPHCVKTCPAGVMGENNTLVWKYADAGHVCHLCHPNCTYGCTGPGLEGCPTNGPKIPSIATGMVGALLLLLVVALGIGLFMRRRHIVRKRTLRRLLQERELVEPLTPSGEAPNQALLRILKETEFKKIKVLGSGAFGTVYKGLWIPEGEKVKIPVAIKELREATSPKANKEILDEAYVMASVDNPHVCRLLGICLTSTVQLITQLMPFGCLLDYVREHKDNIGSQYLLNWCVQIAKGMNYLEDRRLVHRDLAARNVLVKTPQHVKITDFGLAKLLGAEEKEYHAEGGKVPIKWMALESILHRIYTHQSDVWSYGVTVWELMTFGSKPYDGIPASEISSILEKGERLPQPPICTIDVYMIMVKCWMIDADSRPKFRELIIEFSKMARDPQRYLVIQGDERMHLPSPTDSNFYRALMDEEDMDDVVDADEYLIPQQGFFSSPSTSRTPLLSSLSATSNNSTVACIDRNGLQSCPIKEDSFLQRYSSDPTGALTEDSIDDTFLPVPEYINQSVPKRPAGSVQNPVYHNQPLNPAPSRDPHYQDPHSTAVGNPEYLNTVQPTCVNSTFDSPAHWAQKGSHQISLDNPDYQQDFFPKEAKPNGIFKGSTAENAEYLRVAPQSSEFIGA

Structure (SMILES): CN(C)CCCNc1ccc2ncn3c4ccc5[nH]ncc5c4c(=O)c1c23 [Compound (IV)]
- pEC50 (MAP2K1 (MEK1)): < 5.30
- pEC50 (MUSK): 5.84
- pEC50 (EGFR (ErbB1)): < 5.30
- pEC50 (SGK (SGK1)): 5.46
- pEC50 (GSK3B (GSK3 beta)): < 5.30
- pEC50 (PRKG1 (PKG1)): < 5.30
- pEC50 (CAMK4 (CaMKIV)): < 5.30
- pEC50 (GRK7; GRK7, estimated, abridged dose response curve, read-out: Kinase inhibitory activity EC50): < 5.30
- pEC50 (BTK): 5.84
- pEC50 (PRKCZ (PKC zeta)): < 5.30
- pEC50 (SRC): 6.36
- pEC50 (NEK2): < 5.30
- pEC50 (RPS6KA2 (RSK3)): 6.08
- pEC50 (CHEK1 (CHK1)): < 5.30
- pEC50 (PAK7 (KIAA1264, PAK5)): < 5.30
- pEC50 (PHKG2): 5.43
- pEC50 (ERBB4 (HER4)): < 5.30
- pEC50 (STK24 (MST3)): 5.98
- pEC50 (MAP2K6 (MKK6)): < 5.30
- pEC50 (IGF1R): 5.81
- pEC50 (MAP4K4 (HGK, ZC1)): < 5.30
- pEC50 (JAK2): < 5.30
- pEC50 (PKN1 (PRK1)): 5.86
- pEC50 (PLK2): < 5.30
- pEC50 (SRMS (Srm)): < 5.30
- pEC50 (MARK1 (MARK)): < 5.30
- pEC50 (PRKCB2 (PKC beta II)): < 5.30

Structure (SMILES): CCN(CC)CCNc1ccc2ncn3c4ccc(O)cc4c(=O)c1c23 [Symadex, 5-(2-(diethylamino)ethylamino)-8-hydroxy-6H-imidazo[4,5,1-de]acridin-6-one, reference compound]
- pEC50 (MAP2K1 (MEK1)): < 5.30
- pEC50 (MUSK): 5.43
- pEC50 (EGFR (ErbB1)): < 5.30
- pEC50 (SGK (SGK1)): 5.57
- pEC50 (GSK3B (GSK3 beta)): < 5.30
- pEC50 (PRKG1 (PKG1)): < 5.30
- pEC50 (CAMK4 (CaMKIV)): < 5.30
- pEC50 (GRK7): < 5.30
- pEC50 (BTK): 5.52
- pEC50 (PRKCZ (PKC zeta)): < 5.30
- pEC50 (SRC): 5.36
- pEC50 (NEK2): < 5.30
- pEC50 (RPS6KA2 (RSK3)): 6.34
- pEC50 (CHEK1 (CHK1)): < 5.30
- pEC50 (PAK7 (KIAA1264, PAK5)): < 5.30
- pEC50 (PHKG2): < 5.30
- pEC50 (ERBB4 (HER4)): < 5.30
- pEC50 (STK24 (MST3)): 6.13
- pEC50 (MAP2K6 (MKK6)): < 5.30
- pEC50 (IGF1R): < 5.30
- pEC50 (MAP4K4 (HGK, ZC1)): 5.50
- pEC50 (JAK2): < 5.30
- pEC50 (PKN1 (PRK1)): 5.32
- pEC50 (PLK2): < 5.30
- pEC50 (SRMS (Srm)): < 5.30
- pEC50 (MARK1 (MARK)): 5.50
- pEC50 (PRKCB2 (PKC beta II)): < 5.30
